From patent publication US20220395007A1, “TASTE MODULATING COMPOUNDS AND METHODS OF IMPROVING THE QUALITY OF FOODS AND BEVERAGES” (Ohio State Innovation Foundation, priority 2019, published 2022)

Assays:
[1] = tested on: taste attributes in isolation; assay: Taste attributes of the compounds in isolation, by consensus of experienced sensory panelists; assay type: in vivo, human; conditions: same concentrations as in coffee, 5 experienced panelists by consensus
Protocol: The taste attributes 4-CQA, 5-CQA, and 2-GA in isolation were further evaluated by 5 experienced sensory panelists by consensus. Each compound was dissolved in 5 mL nanopure water and 5 mL buffer (0.05 M sodium phosphate butter adjusted to pH 5.77 with 0.1 M citric acid) at the same concentrations described above. […] This led to the confirmation that 4-CQA, 5-CQA, and 2-O-β-D-glucopyranosyl-atractyligenin were bitter modulators that suppressed perception.

[2] = tested on: perceived bitterness intensity of a coffee rated as having a high bitter intensity; assay: Sensory panel evaluation of perceived bitterness intensity of coffee brew; assay type: in vivo, human; conditions: compound added individually to high-bitter coffee (4-CQA about 177 mg/L, 5-CQA about 181 mg/L, 2-GA about 45 mg/L); eight trained panelists, nose clips, room temperature, duplicate; p<0.05
Protocol: 4-CQA (4-caffeoylquinic acid) (about 177 mg/L), 5-CQA (5-caffeoylquinic acid) (about 181 mg/L), and 2-GA (2-O-β-D-glucopyranosyl-atractyligenin) (about 45 mg/L) were added individually or as a group to a coffee rated as having a high bitter intensity. Five mL of each sample at room temperature was presented to experienced sensory panelists in 1 oz black cups labeled with 3-digit codes in random order. Eight trained panelists, recruited by Flavor Research and Education Center (FREC) at The Ohio State University, used nose clips during the evaluation in order to prevent interactions with olfactory responses. Between samples, panelists waited a minimum of 90 seconds and were asked to cleanse their palate using crackers and water. All evaluations were conducted in duplicate using Compusense Cloud software (Compusense Inc., Guelph, ON, Canada). […] FIGS. 1 and 2.

[3] = dissolved in 5 mL buffer (0.05 M sodium phosphate adjusted to pH 5.77 with 0.1 M citric acid)
[4] = dissolved in 5 mL nanopure water

Structure (SMILES) | taste attribute in isolation [1, 3] | taste attribute in isolation [1, 4] | perceived bitterness intensity of the coffee brew [2]
O=C(/C=C/c1ccc(O)c(O)c1)O[C@@H]1C[C@@](O)(C(=O)O)C[C@@H](O)[C@@H]1O [5-CQA, 5-O-caffeoylquinic acid] | very weak sour taste | very weak sour taste | significantly reduce
O=C(/C=C/c1ccc(O)c(O)c1)O[C@H]1C(O)C[C@](O)(C(=O)O)C[C@H]1O (stereo partly drawn) [4-CQA, 4-O-caffeoylquinic acid] | very weak sour taste | very weak sour taste | significantly reduce
C=C1[C@@H]2CCC3[C@@](CC[C@@H]4[C@H](C(=O)O)C[C@@H](O[C@@H]5O[C@H](CO)[C@@H](O)[C@H](O)[C@H]5O)C[C@@]34C)(C2)[C@H]1O (stereo partly drawn) [2-GA, 2-O-β-D-glucopyranosyl-atractyligenin] | no obvious taste character | no obvious taste character | significantly reduce
